Laboratory results as given in patent US20190025313A1, “TREATMENT OF TUMORS INCORPORATING MUTANT ISOCITRATE DEHYDROGENASE” (Agios Pharmaceuticals, Inc., priority 2015, published 2019).

Tests used:
Assay type in all cases: cell-based
TF1 cells [1] = assay: Metabolic activity (ATP fold-change) in methotrexate treated TF1 cells; settings: FIG. 3
Text: Metabolic activity was rescued in mIDH1 and mIDH2 TF1 cells with 3-day folinic acid supplement.

TF1 cells [2] = assay: Proliferation assay, cell line not specified (IC90 at day 7); settings: Homo sapiens, TF-1, 168 h, cell line not stated
Experimental: (§1) TF1-pLVX (wildtype) cells were pLVX plated at 20 k/ml, 90 μl/well while TF1/R132H27 (mIDH1) and TF1/R140Q11 (mIDH2) cells were plated at 80 k/ml, 90 μl/well in RPMI, 10% FBS, G418 and GM-CSF. Test compound was added on day 0 and CellTiter-Glo, assay (Promega) was performed on day 3/4 and 7. Medium was not changed during 7-day culture.
(§2) Data was expressed as ATP fold-change: day 3 over day 0.

[3] = test system: TF1/R140Q11 (mIDH2) cells; assay: Proliferation assay (CellTiter-Glo) of mutant IDH2 TF1 cells; settings: Homo sapiens, TF-1, mutant IDH2 (R140Q) TF1 cells, read-out: IC50, inhibition of proliferation
Experimental: (§3) Proliferation Assay of Wild Type and Mutant IDH Cell Lines
as §1

[4] = test system: TF1/R132H27 (mIDH1) cells; assay: Proliferation assay (CellTiter-Glo) of mutant IDH1 TF1 cells; settings: Homo sapiens, TF-1, mutant IDH1 (R132H) TF1 cells, read-out: IC50, inhibition of proliferation
Experimental: as §3, §1

mIDH2 TF1 cells = assay: Metabolic activity (ATP fold-change) and rescue in mIDH2 TF1 cells; settings: for drop in metabolic activity / rescue of brequinar-induced drop in metabolic activity: Brequinar 2 μM; for drop in metabolic activity: ATP fold-change day 3 over day 0
Experimental: as §1, §2

mIDH1 TF1 cells = assay: Metabolic activity (ATP fold-change) and rescue in mIDH1 TF1 cells; settings: for drop in metabolic activity / rescue of brequinar-induced drop in metabolic activity: Brequinar 2 μM; for drop in metabolic activity: ATP fold-change day 3 over day 0
Experimental: as §1, §2

[5] = uridine 8 μM, 3-day supplement, FIG. 2A
[6] = 3-day folinic acid supplement, methotrexate treated, FIG. 3

## CN(Cc1cnc2nc(N)nc(N)c2n1)c1ccc(C(=O)N[C@@H](CCC(=O)O)C(=O)O)cc1 [methotrexate]
TF1 cells [1]
  metabolic activity expressed as ATP fold-change (day 3 over day 0): drop in metabolic activity

## Cc1c(-c2ccc(-c3ccccc3F)cc2)nc2ccc(F)cc2c1C(=O)O [Brequinar, brequinar]
TF1 cells [2]
  IC90: ~2000 nM
[3]
  IC50: 1600 nM
[4]
  IC50: 1300 nM
mIDH2 TF1 cells; FIG. 2A
  drop in metabolic activity: 52%
mIDH2 TF1 cells; FIG. 2B
  drop in metabolic activity: 47%
mIDH1 TF1 cells; FIG. 2A
  drop in metabolic activity: 73%
mIDH1 TF1 cells; FIG. 2B
  drop in metabolic activity: 77%

## O=c1ccn([C@@H]2O[C@H](CO)[C@@H](O)[C@H]2O)c(=O)[nH]1 [uridine]
mIDH2 TF1 cells; [5]
  rescue of brequinar-induced drop in metabolic activity: rescued
mIDH2 TF1 cells; uridine 1,000 μM, FIG. 2B
  rescue of brequinar-induced drop in metabolic activity: rescued
mIDH1 TF1 cells; [5]
  rescue of brequinar-induced drop in metabolic activity: rescued
mIDH1 TF1 cells; uridine 1,000 μM, FIG. 2B
  rescue of brequinar-induced drop in metabolic activity: rescued

## Nc1nc(=O)c2c([nH]1)NCC(CNc1ccc(C(=O)N[C@@H](CCC(=O)O)C(=O)O)cc1)N2C=O (mixture of isomers) [folinic acid]
mIDH2 TF1 cells; [6]
  rescue of methotrexate-induced drop in metabolic activity: rescued
mIDH1 TF1 cells; [6]
  rescue of methotrexate-induced drop in metabolic activity: rescued
